Data from US20100239500A1, “SUBSTITUTED TRIAZINE COMPOUNDS FOR NERVE REGENERATION” (priority 2007, published 2010).

Columns and labels:
[1] = test system: cAMP levels in CGNs; test: cAMP levels in CGNs; type: cell-based; conditions: two hours, PDL or PDL/myelin, forskolin at concentrations indicated in chart
Protocol: CGNs were cultured for two hours on PDL or on PDL/myelin in the absence or presence of the four lead compounds at […] (F) at the concentrations indicated in the chart. Forskolin increased neuronal cAMP levels by 100-250-fold, while the lead compounds produced no significant increases.

[2] = test system: CGNs; test: Neurite growth of CGNs on permissive substrates (PDL, laminin); type: cell-based; conditions: CGNs on PDL or laminin (LN)
Protocol: CGNs were cultured on PDL or laminin (LN) substrates in the absence or presence of one of the four lead compounds, or on LN in the presence of Gö6976. Neurons grew neurites on PDL, and grew longer neurites on LN.
(§1) The triazine compounds were added to cultures of primary cerebellar granule neurons (CGNs) to test their ability to promote neurite growth on an inhibitory substrate (PDL/central nervous system myelin). […] The compounds can promote growth on other inhibitory substrates as well. When a mixture of inhibitory chondroitin sulfate proteoglycans (CSPGs) on PDL was used as a substrate, neurite growth of CGNs was increased by each compound, as shown in FIG. 3. The compounds evidently act by overcoming inhibitory signals.

[3] = test system: E15 rat spinal neurons; test: Growth of spinal neurons on CSPG substrates; type: cell-based; conditions: two days
Protocol: E15 rat spinal neurons were cultured on LN, or on LN and CSPGs (LN/CSPG) for two days. They were stained for nuclei (blue) and neuronal beta-tubulin (green).

[4] = test system: cerebellar granule neurons (CGNs); test: Neurite growth of CGNs on CSPG substrates; type: cell-based; conditions: laminin/CSPG substrate
Protocol: as §1

[5] = test system: cerebellar granule neurons (CGNs); test: High-content screen and dose-response of CGN neurite growth on PDL/myelin; type: cell-based; conditions: library compounds at 5 μM shown
Protocol: FIG. 2 is data from a high-content screen of neurite growth on […] (PDL)/myelin. The data for 312 compounds are summarized for total neurite growth normalized to the PDL control. The first three bars show PDL (blue), PDL/myelin (red), and PDL/myelin/dbcAMP (green). […] Straight lines drawn across data represent growth levels with dbcAMP, PDL, myelin, and 50% of the myelin level. The majority of compounds had little or no effect at the concentrations tested (5 μM is shown). […] These four compounds are subsequently referred to as lead compounds.
CGNs were cultured on PDL (control) or on myelin in the presence of the 4 hit compounds at concentrations (in nM) shown. The Cellomics Kinetic Scan Reader (an automated microscope) was used to evaluate average neurite length per neuron in each condition. Growth on myelin in the absence of compounds was set at 100% (origin of y-axis). The black horizontal line represents growth on the control (PDL) substrate; thus growth at or above this line represents complete reversal of the myelin inhibition. Each compound completely reversed growth inhibition by the myelin.
The triazine compounds were added to cultures of primary cerebellar granule neurons (CGNs) to test their ability to promote neurite growth on an inhibitory substrate (PDL/central nervous system myelin). […] The compounds can promote growth on other inhibitory substrates as well. […]

[6] = test system: cPKC; test: In vitro PKC assay; type: biochemical; conditions: preincubated directly with the enzyme; lead compounds at concentrations optimally effective on cells

C=C[C@@]1(C)CC(=O)[C@]2(O)[C@@]3(C)[C@@H](O)CCC(C)(C)[C@@H]3[C@H](O)[C@H](OC(C)=O)[C@@]2(C)O1 [Forskolin, forskolin]
increase of neuronal cAMP levels [1]: 100-250 fold

Cn1c2ccccc2c2c3c(c4c5ccccc5n(CCC#N)c4c21)CNC3=O [Go6976]
neurite growth on permissive substrates [2]: significantly increased growth on LN | growth of spinal neurons on LN/CSPG [3]: somewhat restored | neurite growth on LN/CSPG mixture [4]: largely reversed

CCCC(=O)Nc1ncnc2c1ncn2[C@@H]1O[C@@H]2COP(=O)(O)O[C@H]2[C@H]1OC(=O)CCC [dbcAMP]
total neurite growth normalized to the PDL control [5]: inhibition is overcome

Calphostin C
effect on cPKC activity [6]: inhibits cPKC
